Experimental data from US9139585B2 (Merck Sharp & Dohme Corp., priority 2011, dated 2015).
Where two headings read alike, the source gives them in different places.

Tests used:
hROMK (hKir1.1) = hROMK (hKir1.1) (Homo sapiens (Human), UniProt P48048); experiment: Thallium Flux Assay (ROMK channel functional thallium flux, FLIPR-Tetra); assay type: cell-based
Protocol: Another ROMK functional assay makes use of the ability of thallium to permeate through open ROMK channels and increase the fluorescence of a dye previously loaded into the cells. Under control conditions, cells loaded with dye and exposed to thallium-containing medium display a time-dependent increase in fluorescence, the rate of which depends on number of functional channels. When cells are incubated in the presence of a channel inhibitor, the increase in fluorescence is attenuated in a concentration-dependent manner, and IC50 values of inhibition by compounds can be accurately determined. This assay has been established with cell lines expressing either human, or rat ROMK channels, and operates in 384-well format.
HEK293 cells stably expressing hROMK (hKir1.1) were grown at 37° C. in a 10% CO2 humidified incubator in complete growth media: Dulbecco's Modified Eagle Medium supplemented with non-essential amino acids, Penicillin/Streptomycin/Glutamine, G418 and FBS. At >80% confluency, the media was aspirated from the flask and the sample was rinsed with 10 ml Calcium/Magnesium-free PBS. […] To dislodge the cell, the side of the flask was gently banged with a hand. The cells were triturated completely and then transferred to 25 ml complete media. The sample was then centrifuged at 1,500 rpm for 6 minutes, followed by resuspension in complete growth media and then cell concentration was determined. […] Under ideal growth conditions and appropriate tissue culture practices, this cell line is stable for 40-45 passages.
FluxOR Kit Components (Invitrogen F10017)
• FluxOR™ Reagent (Component A) • FluxOR™ Assay Buffer (Component B)—10× Concentrate • PowerLoad™ Concentrate (Component C)—100× Concentrate • Probenecid (Component D)—Lyophilized sample is kept at −20° C. Water soluble, 100× after solubilization in 1 ml water. […] Store at 4° C. • Thallium sulfate (Tl2SO4) Concentrate (Component G)—50 mM in water. Store at 4° C. • DMSO (dimethyl sulfoxide, Component H)—1 ml (100%) Reagent Preparation— FluxOR Working Solutions • 1000× FluxOR™ Reagent: Reconstitute a vial of component A in 100 μl DMSO; Mix well; Store 10 μl aliquots at −20° C. • 1× FluxOR™ Assay Buffer: Dilute Component B 10-fold with water; Adjust pH to 7.4 with Hepes/NaOH; Filter and store at 4° C. • Probenecid/Assay Buffer: 100 ml of 1× FluxOR™ Assay Buffer; 1 ml of reconstituted component D; Store at 4° C. • Loading Buffer (per microplate): 10 μl 1000× FluxOR™ Reagent; 100 μl component C; 10 ml Probenecid/Assay Buffer • Compound Buffer (per microplate): 20 ml Probenecid/Assay Buffer; 0.3 mM ouabain (10 mM ouabain in water can be stored in amber bottle/aluminum foil at room temperature);
Test compound • 1× FluxOR™ Chloride-Free Buffer: Prepare 1× working solution in water. Can be stored at room temperature • Stimulant Buffer (prepared at 5× final concentration in 1× FluxOR™ Chloride-Free Buffer): 7.5 mM Thallium sulfate and 0.75 mM Potassium sulfate (to give a final assay concentration of 3 mM Thallium/0.3 mM Potassium). Store at 4° C. when not in use. If kept sterile, this solution is good for months. Assay Protocol—
The ROMK channel functional thallium flux assay is performed in 384 wells, using the FLIPR-Tetra instrument. HEK-hKir1.1 cells are seeded in Poly-D-Lysine microplates and kept in a 37° C.-10% CO2 incubator overnight. On the day of the experiment, the growth media is replaced with the FluxOR™ reagent loading buffer and incubated, protected from light, at ambient temperature (23-25° C.) for 90 min. The loading buffer is replaced with assay buffer±test compound followed by 30 min incubation at ambient temperature, where the Thallium/Potassium stimulant is added to the microplate.
• 1. Seed HEK-hKir1.1 cells (50 μl at 20,000 cells/well) in 384-well PDL coated Microplates • 2. Allow cells to adhere overnight in humidified 37° C./10% CO2 incubator • 3. Completely remove cell growth media from microplate and replace with 25 μl loading buffer • 4.

Kir1.1 (ROMK1) = Kir1.1 (ROMK1) (Homo sapiens (Human), UniProt P48048); experiment: Electrophysiology Assay (whole cell voltage clamp, IonWorks Quattro); assay type: cell-based; conditions: read-out: EP Assay IC50
Kir1.1 (ROMK1), sequence (P48048 whole entry, species assumed): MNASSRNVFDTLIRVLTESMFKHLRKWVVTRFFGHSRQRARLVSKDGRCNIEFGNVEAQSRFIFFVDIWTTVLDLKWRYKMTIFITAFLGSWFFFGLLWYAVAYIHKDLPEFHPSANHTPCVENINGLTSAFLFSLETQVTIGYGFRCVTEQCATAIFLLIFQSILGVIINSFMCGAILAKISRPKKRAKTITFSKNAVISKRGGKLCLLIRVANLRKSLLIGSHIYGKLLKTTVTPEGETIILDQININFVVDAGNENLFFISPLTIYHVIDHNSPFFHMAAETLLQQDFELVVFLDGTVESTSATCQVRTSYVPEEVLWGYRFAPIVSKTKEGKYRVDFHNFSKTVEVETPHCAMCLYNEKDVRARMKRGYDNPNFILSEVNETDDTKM
Text: Several assays may be used to measure functional inhibition of the ROMK channel by compounds of the instant invention. One assay that can be used is an electrophysiology assay that measures the electrical current that is generated as potassium permeates through the channel.
Block of Kir1.1 (ROMK1) currents was examined by whole cell voltage clamp (Hamill et. al. Pfluegers Archives 391:85-100 (1981)) using the IonWorks® Quattro automated electrophysiology platform (Molecular Devices, Sunnyvale, Calif.). Chinese hamster ovary cells stably expressing Kir1.1 channels were maintained in T-75 flasks in cell culture media in a humidified 10% CO2 incubator at 37° C. Prior to an experiment, Kir1.1 expression was induced by overnight incubation with 1 mM sodium butyrate. On the day of the experiment, cells were dissociated with 2.5 ml of Versene™ (Invitrogen 15040-066) for approximately 6 minutes at 37° C. and suspended in 10 ml of bath solution containing (in mM): 150 NaCl, 10 KCl, 2.7 CaCl2, 0.5 MgCl2, 5 HEPES, pH 7.4. After centrifugation, the cell pellet was resuspended in approximately 4.0 ml of bath solution and placed in the IonWorks® instrument. The intracellular solution consisted of (in mM): 80 K gluconate, 40 KCl, 20 KF, 3.2 MgCl2, 3 EGTA, 5 Hepes, pH 7.4. Electrical access to the cytoplasm was achieved by perforation in 0.13 mg/ml amphotericin B for 4 minutes. Amphotericin B (Sigma A-4888) was prepared as a 40 mg/ml solution in DMSO.
Voltage protocols and current recordings were performed using the IonWorks® HT software/hardware system. Currents were sampled at 1 kHz. No correction for liquid junction potentials was used. The test pulse, consisting of a 100 ms step to 0 mV from a holding potential of −70 mV, followed by a 100 ms voltage ramp from −70 mV to +70 mV, was applied before and after a 6 minutes compound incubation period. Test compounds were prepared by diluting DMSO stock solutions into the bath solution at 3× the final concentration and placed in the instrument in 96-well polypropylene plates. Current amplitudes were measured using the IonWorks® software. To assess compound potency, the fractional block during the voltage step to 0 mV was calculated in Microsoft® Excel (Microsoft, Redmond, Calif.), and dose-response curves were fitted with Igor Pro 4.0 (WaveMetrics, Lake Oswego, Oreg.).

[1] = HEK293 cells stably expressing hROMK (hKir1.1), read-out: Thallium Flux Assay IC50
[2] = Chinese hamster ovary cells stably expressing Kir1.1, block during voltage step to 0 mV

hROMK (hKir1.1), sequence (P48048 whole entry): as the sequence (P48048 whole entry, species assumed) above

| Compound | IC50 (hROMK (hKir1.1); Thallium Flux Assay IC50) [nM] | IC50 (Kir1.1 (ROMK1)) [nM] | IC50 (hROMK (hKir1.1); [1]) [nM] | IC50 (Kir1.1 (ROMK1); [2]) [nM] |
| --- | --- | --- | --- | --- |
| Cc1c([C@@H](O)CN2C3COCC2CN(CCc2ccc4c(c2)C[C@H](C)OC4=O)C3)ccc2c1COC2=O [Example 22, (S)-6-(2-(9-((R)-2-Hydroxy-2-(4-methyl-1-oxo-1,3-dihydroisobenzofuran-5-yl)ethyl)-3-oxa-7,9-diazabicyclo[3.3.1]nonan-7-yl)ethyl)-3-methylisochroman-1-one] | 42.7 | 32 |  |  |
| Cc1c([C@@H](O)CN2CCN(CCc3ccc4c(c3)C[C@@H](C)OC4=O)CC2)ccc2c1COC2=O [Example 28, 4-[(2R)-2-Hydroxy-2-(4-methyl-1-oxo-1,3-dihydro-2-benzofuran-5-yl)ethyl]-1-{2-[(3R)-3-methyl-1-oxo-3,4-dihydro-1H-isochromen-6-yl]ethyl}piperazine] |  |  | 22 | 33 |
| Cc1c([C@H](O)CN2CCN(CCc3ccc4c(c3)C[C@@H](C)OC4=O)CC2)ccc2c1COC2=O [Example 29, (R)-6-(2-(4-((S)-2-Hydroxy-2-(4-methyl-1-oxo-1,3-dihydroisobenzofuran-5-yl)ethyl)piperazin-1-yl)ethyl)-3-methylisochroman-1-one] |  |  | 185 | 145 |
| Cc1c([C@@H](O)CN2CCN(CCc3ccc4c(c3)CCOC4=O)CC2)ccc2c1COC2=O [Example 30, (R)-6-(2-(4-(2-Hydroxy-2-(4-methyl-1-oxo-1,3-dihydroisobenzofuran-5-yl)ethyl)piperazin-1-yl)ethyl)isochroman-1-one] |  |  | 56 | 21 |
| Cc1c([C@H](O)CN2CCN(CCc3ccc4c(c3)CCOC4=O)CC2)ccc2c1COC2=O [Example 31, (S)-6-(2-(4-(2-Hydroxy-2-(4-methyl-1-oxo-1,3-dihydroisobenzofuran-5-yl)ethyl)piperazin-1-yl)ethyl)isochroman-1-one] |  |  | 318 | 564 |
| CCc1c(C(O)CN2CCN(CCc3ccc4c(c3)CCOC4=O)CC2)ccc2c1COC2=O (centres unmarked) [Example 32, 6-(2-(4-(2-(4-Ethyl-1-oxo-1,3-dihydroisobenzofuran-5-yl)-2-hydroxyethyl)piperazin-1-yl)ethyl)isochroman-1-one] |  |  | 71 | 46 |
| O=C1OCCc2cc(CCN3CCN(CC(O)c4ccc5c(c4C(F)(F)F)COC5=O)CC3)ccc21 (centres unmarked) [Example 33, 6-(2-(4-(2-Hydroxy-2-(1-oxo-4-(trifluoromethyl)-1,3-dihydroisobenzofuran-5-yl)ethyl)piperazin-1-yl)ethyl)isochroman-1-one] |  |  | 293 | 38 |
